Test results taken from publication PMC11174103 (Molecules, 2024).
Where “and” joins values, the source holds several entries; their conditions need not be identical. Identical values can stand only once. Like-named read-outs stand apart in the source and are kept apart here.

How the values were obtained:
hMAO-B = target: T1, hMAO-B (Homo sapiens, UniProt P27338); assay: In vitro MAO-B enzyme inhibitory activity (recombinant human enzyme, benzylamine substrate); format: biochemical; conditions: for IC50: recombinant human MAO-B, mean ± SD of 3 independent experiments in triplicate; for SI: SI = IC50 (hMAO-A)/IC50 (hMAO-B) ratio
T1 construct: purchased Sigma-Aldrich
T1 sequence (P27338 1-520): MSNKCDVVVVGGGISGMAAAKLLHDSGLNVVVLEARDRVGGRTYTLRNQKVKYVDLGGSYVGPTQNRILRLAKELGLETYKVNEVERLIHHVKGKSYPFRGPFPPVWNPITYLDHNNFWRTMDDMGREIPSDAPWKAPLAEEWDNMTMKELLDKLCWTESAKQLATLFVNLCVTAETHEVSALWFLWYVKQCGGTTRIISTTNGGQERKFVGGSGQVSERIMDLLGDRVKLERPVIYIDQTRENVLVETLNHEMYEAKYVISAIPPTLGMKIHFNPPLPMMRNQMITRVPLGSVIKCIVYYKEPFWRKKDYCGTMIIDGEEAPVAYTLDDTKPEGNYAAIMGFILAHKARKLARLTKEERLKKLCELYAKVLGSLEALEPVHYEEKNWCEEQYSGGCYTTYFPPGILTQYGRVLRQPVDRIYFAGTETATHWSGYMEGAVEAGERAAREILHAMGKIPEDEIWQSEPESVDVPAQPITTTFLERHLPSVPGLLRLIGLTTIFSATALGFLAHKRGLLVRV
Method: (§1) The Novaroli et al. method was used with minor modifications to study the biological activities of MAO-A and MAO-B in vitro. A preincubation step was carried out at 37 °C for 10 min, in which 140 μL of 0.1 M potassium phosphate-buffered solution at pH 7.4, 8 μL of 0.75 mM kynuramine, and 2 μL of a dimethyl sulfoxide (DMSO) solution (i.e., final DMSO and inhibitor concentrations of 1% (v/v) and 0–1 μM, respectively). Diluted human recombinant enzyme (50 μL) was added to achieve the final protein concentration, and the mixture was incubated at 37 °C. After 20 min, the reaction was stopped with the addition of 75 μL of 2 M NaOH. […] Each measurement was repeated three times. DMSO was used as control. IC50 values were then calculated. […] The determination of IC50 values for inhibition of MAO enzymes involved the use of recombinant human MAO-A and MAO-B enzymes (purchased from Sigma-Aldrich). The initial rates of oxidation were measured in a 1 mL cuvette containing 50 mM of sodium phosphate (pH 7.4) at 25 °C, as described previously, except for the substrate concentrations and assay times. […] Meanwhile, the assessment of MAO-B activity employed 0.6 mM of benzylamine as the substrate, with absorbance changes measured at 250 nm for 10 min. Substrate addition initiated the reaction, and the reaction rates were quantified as alterations in absorbance per minute.

hMAO-A = target: T2, hMAO-A (Homo sapiens, UniProt P21397); assay: In vitro MAO-A enzyme inhibitory activity (recombinant human enzyme, kynuramine substrate); format: biochemical
T2 construct: purchased Sigma-Aldrich
T2 sequence (P21397 1-527): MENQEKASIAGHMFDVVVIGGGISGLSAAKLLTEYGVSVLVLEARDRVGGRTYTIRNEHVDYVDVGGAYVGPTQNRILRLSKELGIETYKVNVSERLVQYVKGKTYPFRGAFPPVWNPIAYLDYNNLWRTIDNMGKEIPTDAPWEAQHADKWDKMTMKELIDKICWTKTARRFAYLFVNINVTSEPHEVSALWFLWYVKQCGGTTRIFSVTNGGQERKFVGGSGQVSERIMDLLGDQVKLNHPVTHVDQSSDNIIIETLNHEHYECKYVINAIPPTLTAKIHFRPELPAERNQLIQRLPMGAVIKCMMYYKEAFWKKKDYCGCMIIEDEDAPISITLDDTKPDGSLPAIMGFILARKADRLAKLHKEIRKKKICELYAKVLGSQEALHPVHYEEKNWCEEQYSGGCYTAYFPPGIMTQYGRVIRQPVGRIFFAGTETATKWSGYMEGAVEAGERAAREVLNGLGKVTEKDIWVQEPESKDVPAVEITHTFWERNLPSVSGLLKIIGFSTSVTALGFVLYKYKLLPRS
Method: as §1

[1] = recombinant human MAO-A, mean ± SD of 3 independent experiments in triplicate, read-out: IC50 hMAO-A

Compound	IC50 (hMAO-B)	IC50 (hMAO-A; [1])	SI (hMAO-B)	IC50 (hMAO-A)
Brc1ccccc1C#CC1(N2CCCCC2)CCCCC1 [4y, 1-(1-((2-Bromophenyl)ethynyl)cyclohexyl)piperidine]	277.4 ± 2.71 nM			
CCOC(=O)C1CCN(C2(C#Cc3ccccc3)CCCCC2)CC1 [4z, Ethyl 1-(1-(phenylethynyl)cyclohexyl)piperidine-4-carboxylate]	213 ± 2.24 nM			
CC1CCCCC1(C#Cc1ccccc1)N1CCCC1 (stereo not drawn) [4s, 1-(2-Methyl-1-(phenylethynyl)cyclohexyl)pyrrolidine]	281.3 ± 2.75 nM			
COc1ccc(C#CC2(N3CCCCC3)CCCCC2)c(C)c1 [4x, 1-(1-((4-Methoxy-2-methylphenyl)ethynyl)cyclohexyl)piperidine]	267.4 ± 2.52 nM			
COc1ccc(CNC2(C#Cc3ccccc3)CCCCC2)cc1 [4m, N-(4-methoxybenzyl)-1-(phenylethynyl)cyclohexanamine]	165 ± 2.01 nM	802.9 ± 7.03 nM	4.86	
C(#CC1(N2CCCCC2)CCCCC1)c1ccccc1 [4a, 1-(1-(phenylethynyl)cyclohexyl)piperidine]	274.2 ± 2.68 nM			
C(#CC1(N2CCCCC2)CCCC1)c1ccccc1 [4n, 1-(1-(phenylethynyl)cyclopentyl)piperidine]	272.3 ± 2.54 nM			
C(#CC1(NC2CCCCC2)CCCCC1)c1ccccc1 [4l, N-cyclohexyl-1-(phenylethynyl)cyclohexan-1-amine]	294 ± 3.06 nM			
CCCC(C)(C#Cc1ccccc1)N1CCCC1 (stereo not drawn) [4p, 1-(3-Methyl-1-phenylhex-1-yn-3-yl)pyrrolidine]	203 ± 2.24 nM			
C(#CC1(N2CCCC2c2cccnc2)CCCC1)c1ccccc1 (stereo not drawn) [4j, 3-(1-(1-(Phenylethynyl)cyclopentyl)pyrrolidin-2-yl)pyridine]	165 ± 2.03 nM	861.5 ± 6.97 nM	5.23	
C(#CC1(N2CCCC2c2cccnc2)CCCCC1)c1ccccc1 (stereo not drawn) [4aa, 3-(1-(1-(Phenylethynyl)cyclohexyl)pyrrolidin-2-yl)pyridine]	168 ± 2.12 nM		4.70	791.3 ± 6.72 nM
CC(C)(O)C#CC1(NCc2ccc(F)cc2)CCCCC1 [4ad, 4-(1-((4-Fluorobenzyl)amino)cyclohexyl)-2-methylbut-3-yn-2-ol]	161 ± 1.97 nM	765.6 ± 6.42 nM	4.74	
C(#CC1(NCc2ccccc2)CC2CCC1C2)c1ccccc1 (stereo not drawn) [4ae, N-Benzyl-2-(phenylethynyl)bicyclo[2.2.1]heptan-2-amine]	321.6 ± 2.94 nM			
Clc1ccc(C#CC2(N3CCCC3)CCCCC2)cc1 [4h, 1-(1-((4-chlorophenyl)ethynyl)cyclohexyl)pyrrolidine]	172 ± 2.1 nM			
C(#CC1(N2CCCC2)CCCCCC1)c1ccccc1 [4c, 1-(1-(phenylethynyl)cycloheptyl)pyrrolidine]	183 ± 2.12 nM			
CCCCCCC(C#Cc1ccccc1)(CCC)N1CCCC1 (stereo not drawn) [4r, 1-(4-(Phenylethynyl)decan-4-yl)pyrrolidine]	323.4 ± 3.21 nM			
CC1CCCC(C#Cc2ccccc2)(N2CCCC2)C1 (stereo not drawn) [4t, 1-(3-Methyl-1-(phenylethynyl)cyclohexyl)pyrrolidine]	192 ± 2.41 nM			
CCC(C)(C#Cc1ccccc1)N1CCCC1 (stereo not drawn) [4o, 1-(3-Methyl-1-phenylpent-1-yn-3-yl)pyrrolidine]	312 ± 3.17 nM			
CC(C)(O)C#CC1(N2CCN(c3ccccc3)CC2)CCCCC1 [4ab, 2-Methyl-4-(1-(4-phenylpiperazin-1-yl)cyclohexyl)but-3-yn-2-ol]	167 ± 2.01 nM	845.8 ± 6.83 nM	5.06	
Cc1ccc(C#CC2(N3CCCC3)CCCCC2)cc1 [4g, 1-(1-(p–tolylethynyl)cyclohexyl)pyrrolidine]	189 ± 2.24 nM			
CCCN(CCC)C1(C#Cc2ccccc2)CCCCC1 [4e, 1-(phenylethynyl)-N, N-dipropylcyclohexan-1-amine]	286.1 ± 2.74 nM			
CC(C)(O)C#CC1(N2CCCC2c2cccnc2)CCCCC1 (stereo not drawn) [4k, 2-methyl-4-(1-(2-(pyridin-3-yl)pyrrolidin-1-yl)cyclohexyl)but-3-yn-2-ol]	152 ± 1.95 nM	797.1 ± 6.73 nM	5.24	
CCC(C#Cc1ccccc1)(CC)N1CCCC1 [4q, 1-(3-Ethyl-1-phenylpent-1-yn-3-yl)pyrrolidine]	317 ± 3.24 nM			
C(#CC1(N2CCCCC2)CC2CCC1C2)c1ccccc1 (stereo not drawn) [4u, 1-(2-(Phenylethynyl)bicyclo[2.2.1]heptan-2-yl)piperidine]	346 nM and 277 nM			
C(#CC1(NCc2ccccc2)CCCCC1)c1ccccc1 [4ac, N-Benzyl-1-(phenylethynyl)cyclohexanamine]	278.4 ± 2.71 nM			
COc1ccc(C#CC2(N3CCCCC3)CCCCC2)cc1 [4i, 1-(1-((4-methoxyphenyl)ethynyl)cyclohexyl)piperidine]	172 ± 2.1 nM			
C(#CC1(N2CCCC2)CCCC1)c1ccccc1 [4b, 1-(1-(phenylethynyl)cyclopentyl)pyrrolidine]	182 ± 2.21 nM			
C(#CC1(N2CCOCC2)CCCCC1)c1ccccc1 [4d, 4-(1-(Phenylethynyl)cyclohexyl)morpholine]	174 ± 2.08 nM			
Cc1cccc(C#CC2(N3CCCCC3)CCCCC2)c1 [4w, 1-(1-(m-Tolylethynyl)cyclohexyl)piperidine]	281.9 ± 2.72 nM			
Clc1ccc(C#CC2(N3CCCCC3)CCCCC2)cc1 [4f, 1-(1-((4-chlorophenyl)ethynyl)cyclohexyl)piperidine]	175 ± 2.11 nM			
